# From US10471076B2, “Compositions and methods to treat vision disorders” (YouHealth Biotech, Limited, priority 2014, dated 2019)
# “Also recorded” adds a separate entry of the source.
# Legend:
# [1] = test system: cataract-causing mutant crystallin proteins; test: Intracellular aggregation of mutant crystallins in transfected human lens progenitor cells; format: cell-based
# Experimental: To assess the effect of lanosterol on crystallin aggregation, human lens progenitor cells were co-transfected with LSS and various crystallin constructs for 4 h. Cells co-transfected with crystallin mutants and pcDNA3.1-N-Flag were used as a control. Human lens progenitor cells co-transfected with LSS and crystallin mutant constructs were cultured for 12 h before assaying for aggregates. The rescue experiments were performed after 16 h by addition of 40 mM sterols (lanosterol or cholesterol, Sigma-Aldrich) to the cell culture medium for 2 h, which was then replaced with fresh culture medium and cells cultured for 24 h. The percentage of cells with crystallin aggregates was calculated from ten randomly selected viewing fields. The values of the wild-type LSS group, mutant group, and mutant plus lanosterol group were calculated. Cells treated with 1% DMSO were used as the controls.
# The impact of LSS and lanosterol on intracellular crystallin aggregation were evaluated in single-blinded observer studies. Experiments have been repeated at least three times. P values were calculated using Student's t-tests. Fluorescence microscopy. Equal amounts of the human lens progenitor cells, HLEB-3 cells or HeLa cells were seeded on glass coverslips pretreated with TC (Solarbio). After culturing for 24 h to reach 90% confluency, the cells were transfected with plasmids containing various LSS or crystallin genes or co-transfected with plasmids containing a certain crystallin gene and those containing the wild-type or mutated LSS gene. The controls were cells transfected with the plasmids containing peGFP-N1 and/or peDNA3.1-N-Flag. Both transfection and co-transfection were performed using Lipofectamine 3000 (Invitrogen) according to the instructions from the manufacturer.
# The effect of lanosterol or cholesterol on the aggresome formation of various crystallins was studied by transfecting the cells with plasmids containing various crystallin genes. The cells were incubated for 24 h to enable efficient protein expression and aggresome formation. The cells were then treated with 0-40 mM sterols in 1% (for human lens progenitor cells) or 2% DMSO (for HeLa cells). Cells treated with 1% or 2% DMSO were used as the control. After treatment for 2 h, the media was replaced with fresh media. After 12 h, the cells were used for microscopy analysis.
# The microscopy samples were prepared by washing the slips with phosphate buffered saline (PBS) three times. The cells were fixed with 4% paraformaldehyde for 40 min followed by another three washes with PBS. The cells were permeabilized with 0.1% Triton X-100 (Sigma) in PBS for 10 min and blocked with 5% normal goat serum in PBS for 1 h at 37° C. […] The mounted cells were analysed using a Carl Zeiss LSM 710 confocal microscope.
# [2] = test system: cataract-causing mutant crystallin proteins; test: Intracellular aggregation of mutant crystallins in HeLa cells; format: cell-based, human; conditions: then 12 h
# Experimental: FIG. 9A, FIG. 9B, and FIG. 9C show inhibition of crystallin mutant aggregation by wild-type LSS and lanosterol in HLEB-3 cells (FIG. 9A) or HeLa cells (FIG. 9B). Cells co-transfected with LSS and crystallin mutant constructs were cultured for 24 h before assaying for aggregates. The rescue experiments were performed by addition of 40 […] μM sterols (lanosterol or cholesterol) to the cell culture medium for 2 h, the sterol medium was then replaced with fresh culture medium and the cells were cultured for a further 12 h. The percentage of cells with crystallin aggregates were calculated from ten randomly selected viewing fields. The values of the wild-type LSS group, mutant group, or mutant plus lanosterol group were calculated. […] After transfection for 4 h and incubation in fresh culture medium for another 24 h, the cells were lysed and centrifuged to separate supernatant and insoluble fractions. LSS and crystallin fusion proteins were detected by antibodies against Flag and GFP, respectively. Red arrows indicate higher crystalline content in the soluble fraction versus in the insoluble fraction in cells containing the WT-LSS.
# Cells were transfected with various crystallin constructs for 4 h and cultured for an additional 24 h in fresh culture medium. Then the cells were treated with 10, 20 and 40 μM lanosterol in 1% (HLEB-3 cells) or 2% DMSO (HeLa cells) for 2 h and cultured for another 12 h. Cells treated with 1% (HLEB-3 cells) or 2% DMSO (HeLa cells) were used as the controls. Formation of intracellular aggregates of various crystallin proteins was visualized by fluorescence of GFP (green) and the nuclei were stained with Hoechst 33342 (blue). Typical intracellular aggregates are indicated by arrows.
# The impact of LSS and lanosterol on intracellular crystallin aggregation were evaluated in single-blinded observer studies. Experiments have been repeated at least three times. P values were calculated using Student's t-tests. Fluorescence microscopy. […]
# [3] = test system: amyloid-like fibrils of crystallin proteins; test: Re-dissolution of pre-formed amyloid-like fibrils (ThT fluorescence, TEM, turbidity); format: biochemical, human; conditions: 0.2 mg/ml aggregates; 500 μM sterols in 500 μM DPPC liposome (b129 prints 500 mM), 37° C., 24 h; TEM and ThT fluorescence; concentration-dependent
# Experimental: Crystallin aggregates were formed by incubating 5 mg ml^−1 protein solution at 60° C. for 2 h (α-crystallins) or 37° C. for 48 h (β- and γ-crystallins) in the presence of 1 M guanidine chloride. The preformed aggregates were re-suspended in PBS at a final protein concentration of 0.2 mg ml^−1 and were treated with 500 μM sterols in 500 μM DPPC liposome and incubated at 37° C. for 24 h. Aggregates treated with 500 μM DPPC liposome only were used as the controls. […] Aggregates treated with 500 μM DPPC liposome only were used as the controls.
# All protein samples were prepared in 20 mM PBS buffer containing 150 mM NaCl, 1 mM EDTA and 1 mM DTT.
# Protein aggregation and aggregate dissociation. The aggregates of the wild-type and mutated αA- and αB-crystallin proteins were obtained by heating the protein solutions containing 1 M guanidine chloride (ultrapure, Sigma-Aldrich) at a con-centration of 5 mg/ml at 60° C. for 2 h. The aggregates of the wild-type and mutated b- and c-crystallins were prepared by heating the protein solutions containing 1 M guanidine chloride at 37° C. for 48 h. The formation of aggregates was confirmed by ThT fluorescence, turbidity (absorbance at 400 nm) and transmission electron microscopy (TEM) observations. […] After 24 h of treatment, the protein solutions were used for ThT fluorescence, turbidity and negatively stained TEM observations. […]
structure (smiles),measurement,setting,value
"CC(C)=CCC[C@@H](C)[C@H]1CC[C@@]2(C)C3=C(CC[C@]12C)[C@@]1(C)CC[C@H](O)C(C)(C)[C@@H]1CC3 [lanosterol, 3β-Hydroxy-8,24-lanostadiene; 8,24-Lanostadien-3β-ol]",intracellular aggregation / aggresome formation of crystallin proteins,"[1]; 0-40 mM sterols in 1% DMSO for 2 h, then 12 h, concentration-dependent, n=3, lanosterol P<1×10^−4, cholesterol P>0.1",significantly inhibited aggresome formation; also recorded: significantly reduced the intracellular aggregation
same,crystallin aggregation in cells co-expressing an LSS mutant and a mutant crystallin (rescue by sterol),"[1]; 40 mM sterols in culture medium for 2 h, then fresh medium 24 h",successfully reduced crystallin aggregation
same,percentage of cells with crystallin aggregates versus control group (rescue),"[2]; HeLa cells co-transfected with LSS and crystallin mutant, 40 μM sterols 2 h, lanosterol P<1×10^−4, cholesterol P>0.1",significantly lower
same,intracellular aggregation caused by cataract-causing mutant crystallin proteins,"[2]; HeLa cells, 10, 20 and 40 μM lanosterol in 2% DMSO for 2 h, concentration-dependent",significantly reduced the intracellular aggregation
same,re-dissolution of aggregated crystallin proteins from amyloid-like fibrils,[3],successfully re-dissolved the aggregated crystallin proteins
